Data set [1] can be described thus: Physical characteristics of the fermentation product. As to conditions: methanol. The format is physicochemical. From the text:
White amorphous powder • 2. […] Molecular weight of 789, as determined by FAB mass spectroscopy and is consistent with the assigned molecular structure in Figure 1.

In a further data set the test system is mouse T lymphocytes. The data set is described as follows: T-cell proliferation assay (ionomycin plus PMA induced T-cell stimulation, tritiated thymidine uptake). The format is cell-based. The protocol:
The principle of this assay is to measure the proliferation of mouse T lymphocytes stimulated with the combination of ionomycin plus PMA. A positive sample in this assay will inhibit T-cell proliferation, as indicated by reduced tritiated thymidine uptake. […] Cells were pelleted by centrifugation at 1500 rpm for 8 minutes. Contaminating red cells were removed by treating the pellet with ammonium chloride lysing buffer (GIBCO) for 2 minutes at 4°C. Cold medium was added and cells were again centrifuged at 1500 rpm for 8 minutes. T lymphocytes were then isolated by separation of the cell suspension on nylon wool columns as follows: Nylon wool columns were prepared by packing approximately 4 grams of washed and dried nylon wool into 20 ml plastic syringes. The columns were sterilized by autoclaving at 250°F for 30 minutes. Nylon wool columns were wetted with warm (37°C) culture medium and rinsed with the same medium. Washed spleen cells resuspended in warm medium were slowly applied to the nylon wool. The columns were then incubated in an upright position at 37°C for 1 hour. Non-adherent T lymphocytes were eluted from the columns with warm culture medium and the cell suspensions were spun as above. […] The cell suspension was immediately distributed into 96 well flat-bottom microculture plates (Costar) at 200 µl/well. […] The proliferation of T lymphocytes was assessed by measurement of tritiated thymidine incorporation. After 44 hours of culturing, the cells were pulse-labelled with 2 µCi/well of tritiated thymidine (NEN, Cambridge, MA). After another 4 hours of incubation, cultures were harvested on glass fiber filters using a multiple sample harvester. Radioactivity of filter discs corresponding to individual wells was measured by standard liquid scintillation counting methods (Betacounter). Mean counts per minute of replicate wells were calculated and the results expressed as percent inhibition of tritiated thymidine uptake (proliferation) as follows: [formula]

pIC50: −log10 of the molar value. Entries after “also recorded” stand apart in the source; their conditions may differ. Where two headings read alike, the source gives them in different places.

The inhibition is the share of the control response that was lost under treatment. Take `C=CCC1C=C(C)CC(C)CC(OC)C(O)C2CC(C)C(O)(O2)C(=O)C(=O)N2CCCCC2C(=O)OC(C(C)=CC2CCC(O)C(OC)C2)C(C)C(O)CC1=O` [L-683,519]: the Solubility result in data set [1] was “Solubility in methanol”. Also, the pIC50 in the data set on mouse T lymphocytes (Mus musculus, T-lymphocyte, inhibition of T-cell proliferation, this experiment, same value in molar terms, read-out: IC₅₀) was 8.66; in the data set with mouse T lymphocytes (Mus musculus, T-lymphocyte, range generally found, read-out: IC₅₀), 8.40 to 8.70. Besides, the IC50 in the data set with mouse T lymphocytes (Mus musculus, T-lymphocyte, inhibition of T-cell proliferation, this experiment, read-out: IC₅₀) was determined as 1.7 ng/mL. In the data set on mouse T lymphocytes (Mus musculus, T-lymphocyte, L-683,519 0.58 ng/ml, harvest at 48 hours), the inhibition at 0.00058 µg/mL is 0%. The inhibition at 0.00087 µg/mL in the data set on mouse T lymphocytes (Mus musculus, T-lymphocyte, L-683,519 0.87 ng/ml, harvest at 48 hours) was determined as 0%. Further, in the data set with mouse T lymphocytes (Mus musculus, T-lymphocyte, L-683,519 1.3 ng/ml, harvest at 48 hours), the inhibition at 0.0013 µg/mL is 30%. Further, the inhibition at 0.0019 µg/mL in the data set with mouse T lymphocytes (Mus musculus, T-lymphocyte, L-683,519 1.9 ng/ml, harvest at 48 hours) worked out at 57%. Besides, the inhibition at 0.0029 µg/mL in the data set on mouse T lymphocytes (Mus musculus, T-lymphocyte, L-683,519 2.9 ng/ml, harvest at 48 hours) was found to be 81%. The inhibition at 0.0044 µg/mL in the data set on mouse T lymphocytes (Mus musculus, T-lymphocyte, L-683,519 4.4 ng/ml, harvest at 48 hours) is 93%. Moreover, in the data set with mouse T lymphocytes (Mus musculus, T-lymphocyte, L-683,519 6.6 ng/ml, harvest at 48 hours), the inhibition at 0.0066 µg/mL was 97%. For the same compound, the inhibition at 0.0099 µg/mL with mouse T lymphocytes (Mus musculus, T-lymphocyte, L-683,519 9.9 ng/ml, harvest at 48 hours) amounted to 99%. For the same compound, in the data set with mouse T lymphocytes (Mus musculus, T-lymphocyte, L-683,519 15.0 ng/ml, harvest at 48 hours), the inhibition at 0.015 µg/mL worked out at 99%. For the same compound, in the data set on mouse T lymphocytes (Mus musculus, T-lymphocyte, L-683,519 22.0 ng/ml, harvest at 48 hours), the inhibition at 0.022 µg/mL amounted to 99%. The inhibition at 0.033 µg/mL in the data set on mouse T lymphocytes (Mus musculus, T-lymphocyte, L-683,519 33.0 ng/ml, harvest at 48 hours) is 99%. Further, the inhibition at 0.05 µg/mL in the data set on mouse T lymphocytes (Mus musculus, T-lymphocyte, L-683,519 50.0 ng/ml, ionomycin 250 ng/ml + PMA 10 ng/ml, ³H-thymidine pulse 4 hours, harvest at 48 hours) worked out at 99%. Moreover, in the data set on mouse T lymphocytes (addition of 50 units/ml. of recombinant human IL-2), the “Inhibition of proliferation after addition of IL-2” value was 4. Inhibition of proliferation was reversed by the addition of 50 units/ml. of recombinant human IL-2. Also, the “inhibition of T-cell activation (immunosuppressive activity)” value in the data set on mouse T lymphocytes (result in words) is “positive inhibition of T-cell activation; also recorded: positive immunosuppressive activity”.
With `C=CC[C@@H]1/C=C(\C)C[C@H](C)C[C@H](OC)[C@H]2O[C@@](O)(C(=O)C(=O)N3CCCC[C@H]3C(=O)O[C@H](/C(C)=C/[C@@H]3CC[C@@H](O)[C@H](OC)C3)[C@H](C)[C@@H](O)CC1=O)[C@H](C)C[C@@H]2OC` [L-679,934], in the data set on mouse T lymphocytes (Mus musculus, T-lymphocyte, 48 h), the inhibition at 0.01 µg/mL turned out to be 99%.

For the origin of these results see patent EP0378317A2, “Microbial transformation product of L-679,934” (Merck & Co., Inc., priority 1989, dated 1990).
